Source: patent publication US20260007673A1, “ROCK2 INHIBITORS FOR THE TREATMENT OF VIRAL INFECTIONS” (GRAVITON BIOSCIENCE BV, priority 2022, published 2026)
“Also recorded” adds a separate entry of the source.

Key:
[1] = system: SARS-CoV-2 2019-nCoV/USA-WA1/2020 strain; assay: Lung viral load by qPCR in infected human ACE2 transgenic mice; type: in vivo; settings: mice infected with 100 or 1000 pfu; 300 mg/kg daily oral gavage; 7, 14, 21 days; vs vehicle and remdesivir (FIGS. 13-14)
Calu-3 cells = assay: Cellular toxicity: LDH assay; type: cell-based, human; settings: 0.03-100 μM, LDH assay at 48 h (FIGS. 4-5)
Experimental: The toxicity of Compound 2 was measured at concentrations of 0.1, 0.3, 1, 10, 25, 50, 75, and 100 μM in Calu-3 cells by LDH ([…] dehydrogenase) assay (Clontech) according to the manufacturer's instructions. A positive control consisted of saponin (0.5%). A negative control consisted of DMSO (0.2%).

SARS-CoV-2 [2] = assay: In vitro SARS-CoV-2 model in immortalized human airway epithelial cells (Calu-3), viral load by qRT-PCR; type: cell-based; settings: for inhibition of viral replication (viral titers): 10 μM
Experimental: A 50 mM stock solution of Compound 2 (in DMSO) was diluted using PBS to concentrations of 100, 75, 50, 25, 10, 5, 1, 0.3, 0.1, and 0.03 μM. About 30,000 immortalized human airway epithelial cells (Calu-3) (see, FIG. 1-10) or primary human airway epithelial cells (Normal Human Small Airway Epithelial Cells; Sigma) (see, FIGS. 11-12) were grown to about 100,000 cells per well in a 96-well format. The cells were challenged with 10^2 or 10^3 PFU SARS-CoV-2 (standard CDC SARS-CoV-2 strain) in triplicate and incubated for 6 h at 37° C., followed by washing. The cells were then treated with Compound 2 or negative control by adding 10 μL of a solution of Compound 2 (0.03-100 μM) or negative control solution (DMSO in PBS) in triplicate and incubating for 2 h at 37° C. A positive control consisted of remdesivir (RDV; 10 μM). An additional control (3 wells) was treated with Compound 2 at the highest concentration, but not challenged with virus. The cells were maintained until the second endpoint readout at 48 h (the first occurring at 24 h post-infection). In some instances, the cellular media was replaced 24 h after infection with untreated culture medium (“unmediated medium”) or culture medium containing the positive control (RDV) or Compound 2 (“mediated medium”), see, FIG. 10.
Viral infection/load was analyzed by qPCR (qRT-PCR). RNA from cells was extracted with TRIzol reagent (Thermo Fisher) according to manufacturer's instructions. Viral or host RNA levels in the supernatant were determined using the TaqPath™ 1-Step RT-qPCR Master Mix (Thermo Fisher) on a CFX Connect Real-Time System (Bio-Rad) instrument using the following primers: Fwd: 5′-[…]-3′; Rev. 5′-[…]-3′.
Datasets were analyzed and plotted in GraphPad Prism (version 9.0.2). Analytic simulations of dose-response curves using the median-effect principle and mass-action Law were carried out using CompuSyn (https://www.combosyn.com/).

[3] = system: SARS-CoV-2 infected lung tissue; assay: Lung fibrosis by H&E staining in infected human ACE2 transgenic mice; type: in vivo; settings: infected mouse lung tissue 7, 14, 21 days after infection; vs vehicle (FIG. 16)
SARS-CoV-2 [4] = assay: 7-day clinical trial in patients with mild to moderate COVID-19; type: in vivo
SARS-CoV-2 [5] = assay: In vitro SARS-CoV-2 model in primary human airway epithelial cells, viral load by qRT-PCR; type: cell-based; settings: 5 μM and 25 μM, read at 24 and 48 hours (FIGS. 11-12)
Experimental: A 50 mM stock solution of Compound 2 (in DMSO) was diluted using PBS to concentrations of 100, 75, 50, 25, 10, 5, 1, 0.3, 0.1, and 0.03 μM. About 30,000 immortalized human airway epithelial cells (Calu-3) (see, FIG. 1-10) or primary human airway epithelial cells (Normal Human Small Airway Epithelial Cells; Sigma) (see, FIGS. 11-12) were grown to about 100,000 cells per well in a 96-well format. The cells were challenged with 10^2 or 10^3 PFU SARS-CoV-2 (standard CDC SARS-CoV-2 strain) in triplicate and incubated for 6 h at 37° C., followed by washing. The cells were then treated with Compound 2 or negative control by adding 10 μL of a solution of Compound 2 (0.03-100 μM) or negative control solution (DMSO in PBS) in triplicate and incubating for 2 h at 37° C. A positive control consisted of remdesivir (RDV; 10 μM). […] The cells were maintained until the second endpoint readout at 48 h (the first occurring at 24 h post-infection). […]
Viral infection/load was analyzed by qPCR (qRT-PCR). […] Viral or host RNA levels in the supernatant were determined using the TaqPath™ 1-Step RT-qPCR Master Mix (Thermo Fisher) on a CFX Connect Real-Time System (Bio-Rad) instrument using the following primers: Fwd: 5′-[…]-3′; Rev. […]
Datasets were analyzed and plotted in GraphPad Prism (version 9.0.2). […]

Cn1c(C(=O)N2CC(F)(F)C2)cc2ccc(-c3nccc(Nc4ccc(-c5cn[nH]c5)cc4)n3)cc21 [Compound 2, (6-(4-((4-(1H-pyrazol-4-yl)phenyl)amino)pyrimidin-2-yl)-1-methyl-1H-indol-2-yl)(3,3-difluoroazetidin-1-yl)methanone]
viral load in the lung [1]: significantly reduced viral load | cellular toxicity by LDH (Calu-3 cells): low cellular toxicity | inhibition of viral replication (viral titers) (SARS-CoV-2 [2]; Calu-3, read at 24 and 48 hours, compared to negative control (0.1% DMSO) and positive control (RDV) (FIGS. 6-7)): inhibiting viral replication | inhibition of viral replication (viral titers) (SARS-CoV-2 [2]; Calu-3, read at 24 and 48 hours, treated 0, 2, 4, 8 h post-infection, compared to control (FIGS. 1-3)): inhibiting viral replication | dose response of inhibition of viral replication (SARS-CoV-2 [2]; Calu-3, 1, 5, 10 and 25 μM, read at 24 and 48 hours, given 0-10 h after infection (FIGS. 8A-9F)): Dose responses were observed at all time points | viral concentration after repeat dosing (SARS-CoV-2 [2]; Calu-3, 48 h after infection, medium containing compound replenished at 24 h (FIG. 10)): further decreased viral concentration | viral titers of SARS-CoV-2 (SARS-CoV-2 [2]; immortalized human airway epithelial cells infected with SARS-CoV-2, FIGS. 1-12): substantially reduce viral titers | pulmonary fibrosis (histology) [3]: reducing pulmonary fibrosis; also recorded: reduces lung fibrosis | clinical efficacy in treating mild to moderate COVID-19 (SARS-CoV-2 [4]; 200 mg or 400 mg once daily for 7 days plus standard of care (FIGS. 17-20)): clinical efficacy | viral titers, as negative conversion rates of SARS-CoV-2 nucleic acid detection (SARS-CoV-2 [4]; 200 mg or 400 mg once daily for 7 days, relative to Control (FIG. 18)): lower viral titers | inflammation, as levels of interleukin 6 (SARS-CoV-2 [4]; 200 mg/day and 400 mg/day (FIG. 19)): reduced levels of inflammation | inflammation, as levels of C-reactive protein (CRP) (SARS-CoV-2 [4]; 200 mg/day and 400 mg/day (FIG. 20)): reduced levels of inflammation | relief rate of sustained clinical symptoms (SARS-CoV-2 [4]; 400 mg once daily for 7 days, relative to Control and to 200 mg (FIG. 17)): substantial improvement | efficacy against SARS-CoV-2 infection (viral concentration) (SARS-CoV-2 [5]): efficacy at 5 μM and 25 μM concentrations
